A short description of experiment [1]: Cytotoxicity against human BC cells by colorimetric method. It is filed as functional, cell-based.
The test system of experiment [2] is KB. Put plainly: Cytotoxicity against human KB cells by colorimetric method. In kind it is functional, cell-based.

≈ marks a conversion by molar mass, not a printed value.

For the molecule `C/C=C(\C)c1cc(O)c(C)c2c1Oc1c(CO)c(O)cc(/C(C)=C/C)c1C(=O)O2`, the IC50 in experiment [1] and in experiment [2] was greater than 5 mg/L throughout.

`C/C=C(\C)c1cc(O)c(C)c2c1Oc1c(C=O)c(O)cc(/C(C)=C/C)c1C(=O)O2`: the IC50 in experiment [1] turned out to be 4.1 mg/L (≈ 10.4 µM); in experiment [2], 6.5 mg/L (≈ 16.5 µM).

Turning to `C/C=C(\C)c1cc(O)c(C)c2c1Oc1c(COC)c(O)cc(/C(C)=C/C)c1C(=O)O2`, the IC50 in experiment [1] and in experiment [2] was greater than 5 mg/L throughout.

For the molecule `C/C=C(\C)c1cc(OC)c(C)c2c1Oc1c(CO)c(O)cc(/C(C)=C/C(=O)O)c1C(=O)O2` [AURANTICIN A], the IC50 in experiment [1] and in experiment [2] was greater than 5 mg/L in each case.

In the case of `COc1cccc2c1C(=O)c1c(O)c3c(c(O)c1C2=O)C[C@@](O)(C(=O)CO)C[C@@H]3O[C@H]1C[C@H](N)[C@H](O)[C@H](C)O1` [DOXORUBICIN], in experiment [1], the midpoint of inhibition, the IC50, lay at 0.17 mg/L (≈ 0.313 µM).

With `Cc1c2ccncc2c(C)c2c1[nH]c1ccccc12` [ELLIPTECINE], the IC50 in experiment [1] was found to be 0.14 mg/L (≈ 0.568 µM); in experiment [2], 0.21 mg/L (≈ 0.853 µM).

One may read the IC50 as the midpoint of a concentration-inhibition curve. A lower IC50 goes with inhibition by little substance.

The values are drawn from ChEMBL document CHEMBL1158064, “Depsidones from the endophytic fungus BCC 8616” (J Nat Prod, 2006).
